{
  "source": "ChEMBL document CHEMBL3608278",
  "about": "(J Med Chem, 2015)",
  "experiment": "Half life in rat",
  "assay_type": "ADME, organism-based",
  "settings": "in vivo",
  "data": [
    {"smiles": "CC[C@H](C)[C@@H]1NC(=O)[C@@H](NC(=O)[C@H](CO)NC(=O)[C@@H](N)CCCNC(=N)N)CSSC[C@@H](C(=O)O)NC(=O)[C@H]([C@@H](C)O)NC(=O)CNC(=O)[C@@H]2CSSC[C@@H]3NC(=O)[C@H](CCC(N)=O)NC(=O)[C@H](Cc4ccccc4)NC(=O)[C@H](C)NC(=O)[C@H]([C@@H](C)O)NC(=O)[C@H](CSSC[C@H](NC(=O)[C@H](Cc4ccccc4)NC(=O)[C@H](CO)NC(=O)[C@H](CC(C)C)NC(=O)[C@H](CCCNC(=N)N)NC(=O)[C@H](Cc4ccc(O)cc4)NC(=O)[C@H](CCCCN)NC(=O)[C@H](CCSC)NC(=O)[C@H](CO)NC(=O)[C@H](Cc4cnc[nH]4)NC(=O)[C@H](CCCCN)NC3=O)C(=O)N[C@@H](CCCNC(=N)N)C(=O)N[C@@H](CCCCN)C(=O)N[C@@H]([C@@H](C)O)C(=O)N2)NC(=O)[C@H](CCCNC(=N)N)NC(=O)[C@H](CO)NC(=O)[C@H](CCCCN)NC(=O)[C@@H]2CCCN2C(=O)[C@H]([C@@H](C)CC)NC(=O)[C@H]([C@@H](C)O)NC(=O)[C@H](CC(=O)O)NC1=O", "values": [
      {"measurement": "half-life", "value": 20, "unit": "min"}
    ]}
  ]
}
